The IC50 is the concentration that gives 50% inhibition.

These results are taken from patent US12391683B2, “Therapeutic compounds and methods” (Actio Biosciences, Inc., priority 2022, dated 2025).

“And” between values parts separate entries of the source, which are not always exact repeats. Identical values can stand only once.

The subject of data set [1] is Hepatocytes. The data set is described as follows: Hepatocytes predicted clearance, rat.
Data set [2] has as its target recombinant human CYP3A4 enzyme (Homo sapiens, UniProt P08684). The data set is described as follows: CYP3A4 incubation assay. It counts as in vitro ADME. The method, then:
Example 24. CYP3A4 Incubation Assay
Compounds (final concentration […]) were incubated in 100 mM phosphate buffer containing 100 pmol/mL recombinant human CYP3A4 enzyme for 0, 5, 10, 15 and 25 minutes.
Testosterone was used as positive control. Reaction was initiated by the addition of NADPH (final concentration […]) and carried out at 37° C. The reaction was stopped by the addition of 4 volumes of cold acetonitrile (with 100 nM alprazolam, 200 nM labetalol, 200 nM imipramine and 2 μM ketoprofen as internal standards). Samples were centrifuged at 3,220 g for 40 minutes to precipitate protein. 70 μL supernatant was transferred to the analysis plate containing 110 μL of acetonitrile for LC-MS/MS analysis.
The following table indicates the percentage remaining for the indicated examples after incubation with recombinant Human CYP3A4 after 25 minutes under the same conditions as described for Example […].

Data set [3] has as its system Hepatocytes. The data set is described as follows: Hepatocytes predicted clearance, cyno.
The target in data set [4] is Human TRPV4 (Homo sapiens, UniProt Q9HBA0). The data set is described as follows: TRPV4 calcium flux assay (FLIPR, antagonist mode). Also on record: HiBiT (inferred from the expression read-out); host or cells: HEK293T. As to conditions: HEK293T cells transfected with hTRPV4; antagonist mode vs EC80 of TRPV4 agonist; average of at least 3 separate experiments; read-out: Human TRPV4 Ca2+ Assay IC50. It counts as cell-based. How it is done: Example 23. TRPV4 Calcium Assay Methods
Human embryonic kidney 293T (HEK293T/293T) cells are cultured in complete media (Dulbecco's Modified Eagle Medium (DMEM), containing 10% fetal bovine serum (FBS) and 1× penicillin-streptomycin) in a T-75 tissue culture flask. At 90% confluency, cells are detached using TrypLE™ Express cell dissociation buffer. TrypLE™ Express buffer is neutralized by adding culture media in excess. Cells are gently triturated and counted using trypan blue in a Countess 3 automated cell counter. Cells are transferred to a 50 mL conical tube and spun down at 1000 rotations per minute (RPM) for five minutes in a benchtop centrifuge. Media containing detaching enzyme is aspirated off the pellet, followed by resuspension to the desired concentration of 2×10^6 cells per mL in complete DMEM.
Transfection preparations were scaled using a combination of 6 μg of TRPV4 wild-type or mutant plasmid DNA, 36 μL of Fugene6 transfection reagent, and 1000 μL of OptiMEM media for every 2×10^6 cells needed. The transfection mix is left to incubate for 20 minutes at room temperature. Total seeding mixture (1000 μL 2×10^6 cells, 1000 μL transfection mix previously described, and 1000 μL complete DMEM) for one transfection is combined into a 15 mL conical tube. The cells and transfection plasmid are mixed thoroughly and dispensed into a reservoir. This is plated at 25 μL per well in a black 384, black-well, clear-bottom, tissue-culture treated plate. This yields approximately 16,000 cells per well. Plasmid DNA constructs were designed by Actio Biosciences in conjunction with Genscript, and generated by Genscript, for all hTRPV4 wild-type and hTRPV4 P/LP (ClinVar) mutations (G78W, P82S, T891, P97R, R186Q, R232C, R232P, R237G, R237Q, R237 L, R269C, R269H, R269S, G270V, R271P, F273 L, K276E, E278K, G280S, Y281S, R315G, R315W, R316C, R316H, R316 L, R316S, I331F, D333G, S403T, K403T, K407E, S542P, S542Y, L543R, Y591N, R594C, R594H, R594S, G600E, Y602C, R616Q, F617 L, L618P, V6201, A716S, A716T, L735R, T740I, R775K, W785R, E797D, E797K, P799A, P799R, P799S, P799 L, G800D, K801E, P827H, F471del, N797del). The remaining cells are plated in the same manner, in a 384, white-well, clear-bottom, tissue-culture treated plate for expression and relative cell number determination. Plates are placed in the incubator at 37° C. overnight.
Compounds were brought to 10 mM in DMSO. DMSO concentration was kept constant throughout the dilution of any compound. DMSO negative control and concentration-response curves were nanoliter-spotted via PICO8 automated dispenser at 5× test concentration into a 384w clear polypropylene plate containing 1×HBSS+20 mM HEPES buffer. A predetermined concentration equivalent to the EC80 of TRPV4 agonist on hTRPV4 was prepared at 6× in 1×HBSS+20 mM HEPES and loaded into a separate 384-well v-bottom polypropylene plate.
Approximately 18 hours post-transfection, the cell plates were removed from the incubator and equal volume (25 uL) Calcium 6 dye was gently added. Calcium 6 dye containing probenecid (final 5 mM) was prepared per manufacturer's instructions. Cell plate was returned to the incubator for 1 hour, at 37° C.
FLIPR Penta was programmed to add compound using the following settings • Pipettor Head=384 • Read Mode 1 Excitation Wavelength=470_495 • Read Mode 1 Emission Wavelength=515_575 • Read Mode 1 Exposure=0.1000 • Read Mode 1 Gain=6.50 • Read Mode 1 Excitation Intensity=20 • Volume of addition=12.5 μL • Height=40 μL • Speed=15 μL/second
Raw data was exported and analyzed for maximum signal (RFU) after agonist addition—the average baseline (RFU) in the first 15 seconds per well. Data was plotted in GraphPad Prism to determine EC50 or IC50 of the molecules.
(Calcium flux is commonly read through the fluorescence of an indicator in the cells.)

recombinant human CYP3A4 enzyme, sequence (P08684 whole entry): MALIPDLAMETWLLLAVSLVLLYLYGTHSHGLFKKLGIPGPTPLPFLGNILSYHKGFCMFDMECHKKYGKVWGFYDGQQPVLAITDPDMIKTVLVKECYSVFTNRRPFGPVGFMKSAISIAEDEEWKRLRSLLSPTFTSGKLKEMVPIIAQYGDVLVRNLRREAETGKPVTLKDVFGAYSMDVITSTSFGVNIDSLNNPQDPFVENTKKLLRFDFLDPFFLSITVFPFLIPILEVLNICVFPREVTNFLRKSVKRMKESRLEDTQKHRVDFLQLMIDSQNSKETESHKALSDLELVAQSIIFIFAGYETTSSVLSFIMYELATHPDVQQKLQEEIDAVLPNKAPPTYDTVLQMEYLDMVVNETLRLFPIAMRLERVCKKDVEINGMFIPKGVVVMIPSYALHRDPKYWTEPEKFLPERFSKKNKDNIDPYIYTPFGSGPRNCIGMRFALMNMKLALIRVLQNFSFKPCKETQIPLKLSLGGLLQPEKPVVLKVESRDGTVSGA
Human TRPV4, sequence (Q9HBA0 whole entry): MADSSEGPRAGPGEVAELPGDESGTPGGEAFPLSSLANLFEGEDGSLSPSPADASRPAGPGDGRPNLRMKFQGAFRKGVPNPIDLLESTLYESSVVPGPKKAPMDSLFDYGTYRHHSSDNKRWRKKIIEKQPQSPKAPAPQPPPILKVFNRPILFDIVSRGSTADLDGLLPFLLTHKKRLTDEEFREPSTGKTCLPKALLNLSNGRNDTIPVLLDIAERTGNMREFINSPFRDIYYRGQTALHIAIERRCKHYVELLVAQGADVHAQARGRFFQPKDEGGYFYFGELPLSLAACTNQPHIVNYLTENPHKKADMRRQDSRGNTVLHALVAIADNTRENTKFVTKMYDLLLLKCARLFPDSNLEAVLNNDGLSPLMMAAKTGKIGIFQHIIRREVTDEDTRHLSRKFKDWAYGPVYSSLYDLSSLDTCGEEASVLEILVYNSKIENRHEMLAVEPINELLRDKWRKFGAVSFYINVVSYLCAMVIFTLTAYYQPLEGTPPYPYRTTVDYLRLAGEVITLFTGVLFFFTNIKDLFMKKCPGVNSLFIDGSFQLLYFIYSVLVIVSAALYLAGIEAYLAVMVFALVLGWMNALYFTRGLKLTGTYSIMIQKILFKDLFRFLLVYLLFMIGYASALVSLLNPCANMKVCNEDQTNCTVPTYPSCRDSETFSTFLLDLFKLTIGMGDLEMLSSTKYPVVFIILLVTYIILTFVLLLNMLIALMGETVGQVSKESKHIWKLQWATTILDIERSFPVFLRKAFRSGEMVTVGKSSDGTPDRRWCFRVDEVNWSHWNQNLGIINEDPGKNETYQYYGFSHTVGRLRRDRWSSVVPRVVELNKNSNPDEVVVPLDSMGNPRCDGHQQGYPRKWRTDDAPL

In the case of `CC(C)(O)c1cnc(N2C[C@@]3(CC[C@@H](F)[C@](C)(Cn4cnc5ccc(C#N)cc54)C3)OC2=O)cn1` (single isomer, unassigned) [Example 5], the “Hepatocytes predicted clearance in rat” value in data set [1] is 7.67 mL/min/kg. Besides, the “CYP3A4 Clint” value in data set [2] (100 pmol/mL recombinant human CYP3A4, 37° C., 0-25 min) was 0.09 μL/min/pmol CYP450 and < 0.07 μL/min/pmol CYP450. The “Metabolic Stability in Recombinant Human CYP3A4 + NADPH (% remaining after 25 min)” value in data set [2] (recombinant Human CYP3A4 + NADPH, 25 min) was determined as 100%. In data set [3], the “Hepatocytes predicted clearance in cyno” value is 1 mL/min/kg. Besides, the IC50 in data set [4] was found to be 13 nM.
